Experimental data: patent US20170056559A1, “Active Agent-Particle Combination Supporting Bone Regeneration” (ECOLE POLYTECHNIQUE FEDERALE DE LAUSANNE (EPFL), priority 2014, published 2017)

How the values were obtained:
[1] = system: rat femoral model of postmenopausal osteoporosis; experiment: In vivo microCT static and dynamic histomorphometry around femoral screws in ovariectomized rats
Experimental: The in vivo study in a rat femoral model of postmenopausal osteoporosis was performed following a well-established protocol. All animal procedures were approved by the local animal care and use committee (license no. 2508.1, EXPANIM, SCAV, Epalinges, Switzerland).
Eight virgin female Wistar rats (Janvier Labs, Saint-Berthevin, France) were ovariectomized bilaterally with a dorsal approach at an age of 17 weeks and a weight of 295±18 g to induce an estrogen deficiency related bone loss. The rats were housed 4 per cage under 12 h light to 12 h dark cycles at 22° C. room temperature with 55% humidity. They were fed with a standard rodent diet (KLIBA NAFAG 3436, Provimi Kliba AG, Switzerland) and tab water at libitum. […]
In vivo microCT scans (Skyscan 1076, Bruker microCT, Kontich, Belgium) of the right femur only were performed one day before OVX and one day before screw implantation in order to confirm the bone loss caused by the estrogen deficiency. […] The image taken for the evaluation of the bone loss and for dynamic histomorphometry were processed and analyzed using the softwares Amira® (FEI Vizualisation Sciences Group, Burlington, USA) and CTan (Bruker microCT, Kontich, Belgium). […] For an analysis of the spatio-temporal effect, the static and dynamic bone parameters were analyzed in 4 layers of 368 μm each around the screw. […]

[2] = system: RAW 264.7 murine macrophages; experiment: Cell proliferation assay with RAW 264.7 macrophages (CellTiter 96 AQueous One Solution); format: cell-based; conditions: Zoledronate concentrations from 0.16 to 40 μM
Experimental: An aqueous Zoledronate solution with a concentration of 2 mg/ml was prepared and sterile filtered. The drug solution was diluted with CCM to a final concentration of 80 μM of Zoledronate. A further dilution with CCM gave Zoledronate supplemented medium (Zol-CCM) with concentrations of 80 μM, 40 μM, 20 μM, 10 μM, 5 μM, 2.5 μM and 1.25 μM. The dilution procedure was repeated with an aqueous dispersion containing 2 mg/ml Zoledronate and 20 mg/ml nHA (nHA-Zol-CCM). The macrophages were seeded with a density of 2500 cell per well in 96-well plates (Microtest™ 96, Becton Dickinson Labware, NJ, USA) and incubated with 100 μl CCM at standard incubation conditions (37° C., 5% CO2). After 24 h of incubation, 100 μl of CCM, Zol-CCM or nHA-Zol-CCM were added to the cells, the final Zoledronate concentrations in the CCM were therefore 40 μM, 20 μM, 10 μM, 5 μM, 2.5 μM, 1.25 μM and 0.625 μM. A cell proliferation assay (CellTiter 96® AQueous One Solution, Promega, Wis., USA) was performed after 24, 48 and 72 hours of cell exposure to the modified CCM. The absorbance was measured with a plate reader (Wallac 1420 Victor 2, Perkin Elmer, Waltham, Mass., USA). Background plates with only the modified media were measured at all time points to avoid a bias due to the nHA particles in the dispersions.

peri-implant bone = conditions: Zoledronate locally delivered from a hyaluronic acid hydrogel; cited from earlier work

## O=P(O)(O)C(O)(Cn1ccnc1)P(=O)(O)O [Zoledronate]
[1]; between days 10 and 31, locally delivered
  bone resorption/demineralization peak: completely inhibited
[1]; later during the study
  resorption of bone and degradation of the biomaterial: efficiently inhibited the resorption of present and newly formed bone
[2]
  cell proliferation: dose-depended proliferation decrease
peri-implant bone
  increase of early bone formation rate: up to 100%
  peri-implant bone resorption: efficiently inhibiting peri-implant bone resorption
